Experiment [1] is described as follows: HIV-1 Vif–A3G interaction blockers – biochemical, TR-FRET, GST-Vif 1-94, biotin-A3G peptide, dose response retest, primary screen (AID 1117319).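 Note: TR-FRET signal of purified GST-Vif binding a biotinylated A3G peptide; inhibitors lower the FRET signal by blocking Vif and A3G binding.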 It counts as functional. On the technique in general: TR-FRET usually uses a lanthanide donor and a delayed reading to cut background.
Experiment [2] has as its target Sphingosine 1-phosphate receptor 2 (Homo sapiens, UniProt O95136). Nature of the experiment: Dose Response Cell Based Assay for Antagonists of the S1P2 Receptor. [Related pubchem assays: 856, 736 ]. The class given is functional.
Experiment [3] concerns the target Diphosphomevalonate decarboxylase (Streptococcus pneumoniae serotype 2 (strain D39 / NCTC 7466), UniProt Q9FD53). Nature of the experiment: diphosphomevalonate decarboxylase inhibitor confirmation – biochemical, cuvette format, coupled NADH fluorescence (AID 1028). It counts as functional.
Experiment [4] can be described thus: Potency on glucagon-like peptide 1 release, dose-response in NCI-H716 cell line, half maximal inhibitory concentration (AID 1117344). The class given is functional, cell-based.
A short description of experiment [5]: glucagon-like peptide-1 release potency in STC-1, concentration-response, half-maximal inhibitory concentration in the STC-1 line (AID 1117345). It counts as functional, cell-based.
A short description of experiment [6]: TAG accumulation blockers, Nile Red lipid stain – cell-based, H9c2 rat cardiomyoblasts, Nile Red fluorescence, primary readout, dose response (AID 743161). The class given is functional.

Where “and” joins values, the source holds several entries; their conditions need not be identical. Equal values may be shown once. Where a name gives a salt, the structure may show the parent alone. Calls of active or inactive are those of the source. Where only a bound is given, the exact number is not on record here.

Broadly, the IC50 is the concentration needed to halve the response being measured.

Sequence of Sphingosine 1-phosphate receptor 2 (O95136 whole entry): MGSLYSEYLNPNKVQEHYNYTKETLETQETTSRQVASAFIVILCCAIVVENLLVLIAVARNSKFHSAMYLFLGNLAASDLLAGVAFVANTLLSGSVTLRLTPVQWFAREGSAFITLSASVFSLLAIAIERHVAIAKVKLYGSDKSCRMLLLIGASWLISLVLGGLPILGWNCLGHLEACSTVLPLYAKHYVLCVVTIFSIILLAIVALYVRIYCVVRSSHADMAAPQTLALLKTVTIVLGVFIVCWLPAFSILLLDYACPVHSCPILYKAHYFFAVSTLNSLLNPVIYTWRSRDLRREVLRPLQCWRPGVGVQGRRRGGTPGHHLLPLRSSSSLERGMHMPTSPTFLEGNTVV
Sequence of Diphosphomevalonate decarboxylase (Q9FD53 whole entry): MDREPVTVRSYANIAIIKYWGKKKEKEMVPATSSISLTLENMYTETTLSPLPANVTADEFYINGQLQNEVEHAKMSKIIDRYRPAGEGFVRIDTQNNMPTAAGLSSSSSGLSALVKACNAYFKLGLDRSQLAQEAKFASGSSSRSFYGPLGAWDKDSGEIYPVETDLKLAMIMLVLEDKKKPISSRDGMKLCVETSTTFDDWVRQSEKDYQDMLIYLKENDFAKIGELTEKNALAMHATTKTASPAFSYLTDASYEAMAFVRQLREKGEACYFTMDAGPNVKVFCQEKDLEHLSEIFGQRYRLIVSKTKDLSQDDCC

Take `COc1cc(O)oc1/C=N/c1ccccc1`: the IC50 in experiment [1] is > 100 µM (active). `O=C(Nc1ccc(F)cc1)c1sc2cc(C(F)(F)F)cnc2c1-c1cccs1`: the IC50 in experiment [2] is 2.73 µM (active) and 2.06 µM (active). In the case of `O=C(NCCN1CCCC1)c1ccc(-n2sc3ccccc3c2=O)cc1`, in experiment [3], the IC50 was 33 µM (active).

In the case of `CCN(CC)CCOC(=O)C(Cc1cccc2ccccc12)CC1CCCO1` (stereo unspecified) [NAFRONYL OXALATE], the IC50 in experiment [4] and in experiment [5] was > 40 µM (inactive) throughout.

For the molecule `COCCN1Cc2cccc(C(=O)NCc3cccc(N(C)C)c3)c2C1=O`, the IC50 in experiment [6] was > 50 µM (active).

These data come from ChEMBL document CHEMBL1201862, “PubChem BioAssay data set” (2004).
